IC50, melting point and Kd data for 17 compounds are collected here from patent US6670379B2, “Piperidine compounds for use as ccr-3 inhibitors” (Novartis AG, priority 2000, dated 2003).

Structures are written as SMILES.

In general, IC50 refers to the concentration that inhibits the measured activity by half. The term melting point denotes the temperature, or range, at which the solid turns liquid. By Kd is commonly meant a measure of binding affinity in units of concentration. Low values mean tighter binding, high ones weaker binding.

The target of one series is T1, human CCR-3 (Homo sapiens, UniProt P51677).
T1 construct: expressed in transfected cells; host or cells: rat basophil leukemia (RBL-2H3) cells
T1 sequence (P51677 1-355): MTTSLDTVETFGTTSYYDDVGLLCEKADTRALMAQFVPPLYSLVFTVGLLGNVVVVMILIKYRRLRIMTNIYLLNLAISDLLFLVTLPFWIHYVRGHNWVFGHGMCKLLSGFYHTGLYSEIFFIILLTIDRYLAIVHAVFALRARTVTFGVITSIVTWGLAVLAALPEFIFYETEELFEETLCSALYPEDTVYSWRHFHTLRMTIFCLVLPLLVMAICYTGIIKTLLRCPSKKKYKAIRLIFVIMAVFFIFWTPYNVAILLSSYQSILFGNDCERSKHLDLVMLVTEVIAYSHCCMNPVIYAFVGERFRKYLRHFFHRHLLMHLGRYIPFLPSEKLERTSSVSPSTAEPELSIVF
In words: CCR-3 Binding Assay (SPA, [125I]-human eotaxin). The following applies: membranes of RBL-2H3 cells stably expressing CCR3; 50 pM [125I]-human eotaxin; 4 hours at room temperature; read-out: IC50 (inhibition of binding of human eotaxin to human CCR-3). As to the method:
In this assay the effect of agents of the invention on the binding of human eotaxin to human CCR-3 is determined. Recombinant cells expressing human CCR-3 are captured by wheatgerm agglutinin (WGA) polyvinyltoluidene (PVT) SPA beads (available from Amersham), through a specific interaction between the WGA and carbohydrate residues of glycoproteins on the surface of the cells. [^125I]-human eotaxin (available from Amersham) binds specifically to CCR-3 receptors bringing the [^125I]-human eotaxin in close proximity to the SPA beads. Emitted â-particles from the [^125I]-human eotaxin excite, by its proximity, the fluorophore in the beads and produce light.
Preparation of Assay Buffer: 5.96 g HEPES and 7.0 g sodium chloride are dissolved in distilled water and 1M aqueous CaCl2 (1 mL) and 1M aqueous MgCl2 (5 mL) are added. The pH is adjusted to 7.6 with NaOH and the solution made to a final volume of 1 L using distilled water. 5 g bovine serum albumin and 0.1 g sodium azide are then dissolved in the solution and the resulting buffer stored at 4° C. A Complete™ protease inhibitor cocktail tablet (available from Boehringer) is added per 50 mL of the buffer on the day of use.
Preparation of Homogenisation Buffer: Tris-base (2.42 g) is dissolved in distilled water, the pH of the solution is adjusted to 7.6 with hydrochloric acid and the solution is diluted with distilled water to a final volume of 1L. The resulting buffer is stored at 4° C. A Complete™ protease inhibitor cocktail tablet is added per 50 mL of the buffer on the day of use.
Preparation of membranes: Confluent rat basophil leukemia (RBL-2H3) cells stably expressing CCR3 are removed from tissue culture flasks using enzyme-free cell dissociation buffer and resuspended in phosphate-buffered saline. The cells are centrifuged (800 g, 5 minutes), the pellet resuspended in ice-cold homogenisation buffer using 1 mL homogenisation buffer per gram of cells and incubated on ice for 30 minutes. The cells are homogenised on ice with 10 strokes in a glass mortar and pestle. The homogenate is centrifuged (800 g, 5 minutes, 4° C.), the supernatant further centrifuged (48,000 g, 30 minutes, 4° C.) and the pellet redissolved in Homogenisation Buffer containing 10% (v/v) glycerol. The protein content of the membrane preparation is estimated by the method of Bradford (Anal.Biochem. (1976) 72:248) and aliquots are snap frozen and stored at −80° C. The assay is performed in a final volume of 250 μL per well of an Optiplate (ex Canberra Packard). To selected wells of the Optiplate are added 50 μL of solutions of a test compound in Assay Buffer containing 5% DMSO (concentrations from 0.1 nM to 10 μM). To determine total binding, 50 μL of the Assay Buffer containing 5% DMSO is added to other selected wells. To determine non-specific binding, 50 μL of 100 nM human eotaxin (ex R&D Systems) in Assay Buffer containing 5% DMSO is added to further selected wells. To all wells are added 50 μL [^125I]-Human eotaxin (ex Amersham) in Assay Buffer containing 5% DMSO at a concentration of 250 pM (to give a final concentration of 50 pM per well), 50 μL of WGA-PVT SPA beads in Assay Buffer (to give a final concentration of 1.0 mg beads per well) and 100 μL of the membrane preparation at a concentration of 100 μg protein in Assay Buffer (to give a final concentration of 10 μg protein per well). The plate is then incubated for 4 hours at room temperature. The plate is sealed using TopSeal-S (ex Canberra Packard) according to the manufacturer's instructions. The resulting scintillations are counted using a Canberra Packard TopCount, each well being counted for 1 minute. The concentration of test compound at which 50% inhibition occurs (IC50) is determined from concentration-inhibition curves in a conventional manner.

Series [1] addresses alpha-1 adrenergic receptor. Description: alpha-1 adrenergic receptor radioligand binding assay ([125I]-HEAT, rat cerebral cortex membranes). The note with it: for IC50: [125I]-HEAT 40 pM, 37° C. for 60 min, read-out: IC50 (inhibition of binding of the alpha-1 adrenergic receptor). As to the method:
Cerebral cortices from male Sprague-Dawley rats (175-200 g) are dissected and homogenised in 10 volumes of ice cold 0.32 M sucrose (containing 1 mM MgCl2 dihydrate and 1 mM K2HPO4) with a glass/teflon homogeniser. The membranes are centrifuged at 1000×g for 15 min., the pellet discarded and the centrifugation repeated. The supernatants are pooled and centrifuged at 18,000×g for 15 min. The pellet is osmotically shocked in 10 volumes of water and kept on ice for 30 min. The suspension is centrifuged at 39,000×g for 20 min., resuspended in Krebs-Henseleit buffer pH 7.4 (1.17 mM MgSO4 anhydrous, 4.69 mM KCl, 0.7 mM K2HPO4 anhydrous, 0.11M NaCl, 11 mM D-glucose and 25 mM NaHCO3) containing 20 mM Tris, and kept for 2 days at −20° C. The membranes are then thawed at 20-23° C., washed three times with Krebs-Henseleit buffer by centrifugation at 18,000×g for 15 min., left overnight at 4° C. and washed again three times. The final pellet is resuspended with a glass/teflon homogeniser in 125 mL/100 membranes in the same buffer. A sample is taken to determine the protein concentration (using the Bradford Assay with gamma globulin as the standard) and the remainder aliquoted and stored at −80° C.
The resulting membranes are subjected to a radioligand binding assay. […] The plates are incubated at 37° C. for 60 min., after which rapid vacuum filtration over Whatman GF/C 96 well filter plates is carried out. Each plate is then washed three times with 10 ml of ice cold assay buffer using a Brandel Cell harvester (Gaithersburg, Md.). Following drying of the plates for 3 h. at 50° C., 40 μL of Microscint 20 is added to each well, the plates incubated at room temperature for a further 20 min. and the retained radioactivity quantified in a Packard Topcount NXT scintillation counter.
Stock solutions of test compounds are dissolved initially in 100% DMSO and diluted with assay buffer to the required concentrations to yield 1% (v/v) DMSO.

`N#Cc1cccc(/C=C/C(=O)NCCN2CCC(C(=O)c3ccc(F)cc3)CC2)c1` [Example 1]: the results for the IC50 (on human CCR-3; in series [1]) were 125 nM and 210 nM, respectively.

As to `N#Cc1cccc(/C=C/C(=O)N[C@H](Cc2ccccc2)CN2CCC(C(=O)c3ccc(F)cc3)CC2)c1` [Example 2, (E)-N-{(R)-1-Benzyl-2-[4-(4-fluoro-benzoyl)-piperidin-1-yl]-ethyl}-3-(3-cyano-phenyl)-acrylamide], the IC50 on human CCR-3 was found to be 68 nM; in series [1] it was 221 nM.

On to `CCOc1ccc(Br)cc1/C=C/C(=O)N[C@H](Cc1ccccc1)CN1CCC(C(=O)c2ccc(F)cc2)CC1` [Example 4], for which the IC50 on human CCR-3 stood at 13 nM; in series [1], 94 nM.

On to `COc1ccc(Br)cc1/C=C/C(=O)NCCN1CCC(C(=O)c2ccc(F)cc2)CC1` [Example 7], for which the IC50 worked out at 15 nM at human CCR-3 and 48 nM in series [1].

With `COc1ccc(Br)cc1/C=C/C(=O)N[C@H](Cc1cccnc1)CN1CCC(C(=O)c2ccc(F)cc2)CC1` [Example 9], the IC50 on human CCR-3 is 5 nM; in series [1] it was 58 nM.

`COc1ccc(Br)cc1/C=C/C(=O)NCCN1CCC(C(=O)c2ccc(Cl)cc2)CC1` [Example 13, (E)-3-(5-Bromo-2-methoxy-phenyl)-N-{2-[4-(4-chloro-benzoyl)-piperidin-1-yl]-ethyl}-acrylamide]: the IC50 at human CCR-3 came to 26 nM; in series [1] it was 53 nM.

`CC(C)Oc1ccc(Br)cc1/C=C/C(=O)NCCN1CCC(C(=O)c2ccc(F)cc2)CC1` [Example 20]: the IC50 turned out to be 8 nM at human CCR-3 and 89 nM in series [1].

`N#Cc1cccc(/C=C/C(=O)N[C@H](Cc2ccco2)CN2CCC(C(=O)c3ccc(F)cc3)CC2)c1` [Example 23]: the figures for the IC50 (on human CCR-3; in series [1]) were 10 nM and 131 nM, respectively.

`COc1ccc(Br)cc1/C=C/C(=O)N[C@H](CO)CN1CCC(C(=O)c2ccc(F)cc2)CC1` [Example 25]: the values for the IC50 (on human CCR-3; in series [1]) were 11 nM and 387 nM, respectively.

Consider `COc1ccc(C#N)cc1/C=C/C(=O)N[C@H](Cc1ccco1)CN1CCC(C(=O)c2ccc(F)cc2)CC1` [Example 28], for which the IC50 on human CCR-3 amounted to 2 nM; in series [1] it was 72 nM.

Consider `COc1ccc(C#N)cc1/C=C/C(=O)N[C@H](Cc1cnc[nH]1)CN1CCC(C(=O)c2ccc(F)cc2)CC1` [Example 30], for which the IC50 was 13 nM at human CCR-3 and 121 nM in series [1].

On to `COc1ccc(C#N)cc1/C=C/C(=O)N[C@H](CO)CN1CCC(C(=O)c2ccc(Cl)cc2)CC1` [Example 38, (E)-N-{(S)-2-[4-(4-chloro-benzoyl)-piperidin-1-yl]-1-hydroxymethyl-ethyl}-3-(5-cyano-2-methoxy-phenyl)-acrylamide], for which the IC50 was 14 nM on human CCR-3 and 1520 nM in series [1].

`COc1ccc(Cl)cc1/C=C/C(=O)N[C@H](CO)CN1CCC(C(=O)c2ccc(Cl)cc2)CC1` [Example 40]: the IC50 on human CCR-3 stood at 6 nM; in series [1], 215 nM.

Turning to `COc1ccc(Br)cc1/C=C/C(=O)N[C@H](CO)CN1CCC(C(=O)c2ccc(Cl)cc2)CC1` [Example 43], the IC50 came to 22 nM at human CCR-3 and 356 nM in series [1].

On to `COc1ccc(C#N)cc1/C=C/C(=O)N[C@H](Cc1ccncc1)CN1CCC(C(=O)c2ccc(F)cc2)CC1` [Example 44], for which the IC50 on human CCR-3 was 25 nM; in series [1], 331 nM.

`COc1ccc(C#N)cc1/C=C/C(=O)N[C@H](CO)CN1CCC(C(=O)c2ccc(Cl)cc2)CC1` [Example 47, (E)-N-{(S)-1-[4-(4-Chloro-benzoyl)-piperidin-1-ylmethyl]-2-hydroxy-ethyl}-3-(5-cyano-2-methoxy-phenyl)-acrylamide] gave a melting point of 162 to 163 °C.

Regarding `O=C1c2ccccc2CCC1CNCCc1ccc(O)c(I)c1` (centres unmarked) [[^125I]-HEAT, reference compound], binding in series [1] was characterised by a dissociation constant (Kd) of 0.0589 ± 0.0187 nM.
